Source: paper PMC8922279, “Identification of β-Lactams Active against Mycobacterium tuberculosis by a Consortium of Pharmaceutical Companies and Academic Institutions” (ACS Infectious Diseases, 2022)

Assays:
S. aureus = assay: Microbial spectrum, S. aureus; assay type: cell-based, Staphylococcus aureus
C. albicans = assay: Microbial spectrum, C. albicans; assay type: cell-based, Candida albicans
[1] = Cytotoxicity against HepG2 cells (CellTiter-Glo); assay type: cell-based, human; conditions: human, HepG2 cells
Protocol: (§1) Compounds were tested for cytotoxicity against HepG2 cells as previously described.[48],[69],[70] Briefly, cells were exposed to compounds for 48–72 h, and viability was measured using CellTiter-Glo (Promega).

HepG2 cells = assay: Cytotoxicity against HepG2 cells (CellTiter-Glo); assay type: cell-based, human; conditions: Table S4
Protocol: as §1

hERG = biological target: T1, hERG (Homo sapiens, UniProt Q12809); assay: hERG channel measurements (QPatch automated patch clamp); assay type: cell-based; conditions: HEK293 cells stably transfected with hERG (inducible), pH 7.4
T1 construct: expressed in transfected cells
T1 sequence (Q12809 whole entry): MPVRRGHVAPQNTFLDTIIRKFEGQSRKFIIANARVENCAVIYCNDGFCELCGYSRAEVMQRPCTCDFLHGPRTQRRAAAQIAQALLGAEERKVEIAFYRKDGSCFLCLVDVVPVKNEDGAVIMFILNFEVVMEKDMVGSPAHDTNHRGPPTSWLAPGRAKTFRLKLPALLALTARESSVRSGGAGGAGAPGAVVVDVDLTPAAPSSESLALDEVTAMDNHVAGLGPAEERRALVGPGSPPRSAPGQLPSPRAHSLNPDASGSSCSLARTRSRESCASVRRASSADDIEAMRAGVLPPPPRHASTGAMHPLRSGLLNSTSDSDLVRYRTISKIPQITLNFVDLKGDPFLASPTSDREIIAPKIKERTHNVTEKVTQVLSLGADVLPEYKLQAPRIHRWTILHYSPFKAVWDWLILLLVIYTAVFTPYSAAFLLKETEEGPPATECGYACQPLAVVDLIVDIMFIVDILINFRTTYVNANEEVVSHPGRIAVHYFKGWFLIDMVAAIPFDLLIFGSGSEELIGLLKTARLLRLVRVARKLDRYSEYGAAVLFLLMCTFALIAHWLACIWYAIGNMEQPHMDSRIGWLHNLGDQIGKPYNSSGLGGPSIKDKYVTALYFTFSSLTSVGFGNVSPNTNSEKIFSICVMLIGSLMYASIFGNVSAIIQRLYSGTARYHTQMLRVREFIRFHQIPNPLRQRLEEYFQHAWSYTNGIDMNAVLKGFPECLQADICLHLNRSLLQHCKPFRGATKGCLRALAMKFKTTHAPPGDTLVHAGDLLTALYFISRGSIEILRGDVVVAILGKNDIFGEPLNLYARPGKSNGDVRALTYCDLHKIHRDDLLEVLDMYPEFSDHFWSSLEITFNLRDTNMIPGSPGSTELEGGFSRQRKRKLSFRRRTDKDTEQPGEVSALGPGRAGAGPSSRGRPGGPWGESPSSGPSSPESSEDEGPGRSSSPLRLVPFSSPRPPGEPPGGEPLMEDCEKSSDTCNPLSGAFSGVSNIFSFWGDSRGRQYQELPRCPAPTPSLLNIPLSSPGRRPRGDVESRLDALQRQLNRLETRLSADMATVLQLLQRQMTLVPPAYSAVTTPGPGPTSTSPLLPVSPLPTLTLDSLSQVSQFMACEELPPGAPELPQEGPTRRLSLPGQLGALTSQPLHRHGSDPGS
Protocol: The potency of the compounds in inhibiting the human ERG potassium channel (hERG) tail current was assessed in a recombinant HEK293 cell line stably transfected with hERG cDNA under an inducible promoter using the rapid ICE (rapid ion channel electrophysiology) assay. Rapid ICE is an automated patch clamp assay utilizing a QPatch HTX system (Sophion Bioscience A/S). Briefly, inducible HEK hERG cells were cultivated in minimum essential medium supplemented with 10% FBS, 1% nonessential amino acids, 1% sodium pyruvate, 2 mM L-glutamine, 15 μg/mL blasticidin, and 100 μg/mL hygromycin. hERG channel induction was obtained by adding 10 μg/mL tetracycline for 24, 48, or 72 h before recordings. On the day of the experiment, cells were detached with TrypLE and prepared to be loaded on the instrument. Cells were resuspended in 7 mL of serum-free media containing 25 mM Hepes and soybean trypsin inhibitor and immediately placed in the cell storage tank of the machine. […] The voltage protocol was run and recorded continuously during the experiment. […] The average of tail current amplitude values recorded from four sequential voltage pulses was used to calculate for each cell the effect of the test substance by calculating the residual current (% control) compared with vehicle pretreatment. […]

CYP1A2 = assay type: in vitro ADME; conditions: human, hepatocytes, 3 µM
Protocol: (§2) Metabolic stability and induction of human hepatocytes were performed as previously described.[71]

CYP2B6 = assay type: in vitro ADME; conditions: human, hepatocytes, 3 µM
Protocol: as §2

CYP3A5 = assay type: in vitro ADME; conditions: human, hepatocytes, 3 µM
Protocol: as §2

wild-type Mtb H37Rv = assay type: in vivo, 129sv DHP-1 knockout mice
in vivo [2] = conditions: female, CD-1, mouse
in vivo [3] = conditions: DHP-1 knockout, mouse, sc, 300 mg/kg
physchem = conditions: simulated gi fluid, pH 6.5, FaSSIF Stability, % remaining
in vitro [4] = conditions: male, CD-1, mouse, plasma, Plasma stability % Remaining
in vitro [5] = conditions: CD-1, mouse, plasma, pH 7.4, % bound to plasma
in vitro [6] = conditions: SD, rat, plasma, pH 7.4, % bound to plasma
CYP3A4 = CYP3A4 (Homo sapiens, UniProt P08684); assay: CYP3A4 inhibition
Sequence of CYP3A4 (P08684 whole entry, species assumed): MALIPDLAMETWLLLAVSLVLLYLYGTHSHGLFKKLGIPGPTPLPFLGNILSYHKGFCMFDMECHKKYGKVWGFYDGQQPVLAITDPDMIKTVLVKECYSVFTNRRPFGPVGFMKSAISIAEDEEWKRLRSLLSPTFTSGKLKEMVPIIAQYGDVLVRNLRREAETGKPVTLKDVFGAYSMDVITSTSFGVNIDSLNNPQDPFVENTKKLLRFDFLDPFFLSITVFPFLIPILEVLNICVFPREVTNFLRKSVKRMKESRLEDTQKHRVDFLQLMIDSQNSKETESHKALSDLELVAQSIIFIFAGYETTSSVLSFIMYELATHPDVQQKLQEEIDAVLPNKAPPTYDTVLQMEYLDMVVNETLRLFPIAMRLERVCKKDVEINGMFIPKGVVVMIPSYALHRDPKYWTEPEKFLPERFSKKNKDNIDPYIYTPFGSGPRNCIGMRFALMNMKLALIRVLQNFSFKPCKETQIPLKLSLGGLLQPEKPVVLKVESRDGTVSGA

SMILES: O=C(Cc1ccc(C2=NCCN2)cc1)N[C@@H]1C(=O)N2C(C(=O)O)=C(CSc3nncs3)CS[C@H]12 [TBBL-0000316]
- MIC90 (S. aureus; Staphylococcus aureus, S. aureus, with 4 μg/mL clavulanate): 0.86 µM
- S.aureus R + CLAV (MIC90) (S. aureus; clavulanate 4 μg/mL, Table S4): 0.9 µM
- MIC90 (C. albicans; Candida albicans, C. albicans): > 100 µM
- C.albicans R (MIC90) (C. albicans; no clavulanate, Table S4): > 100 µM
- IC50 [1]: > 100 µM
- HepG2 LD50 (HepG2 cells): > 100 µM
- IC50 at 5 min (hERG): > 50 µM
- induction of expression of CYP1A2 (CYP1A2): < 2 fold
- induction of expression of CYP2B6 (CYP2B6): < 2 fold
- induction of expression of CYP3A5 (CYP3A5): < 2 fold
- Log10 CFU per mouse (lungs), Mean (wild-type Mtb H37Rv; 50 mg/kg sc bid + clavulanate 100 mg/kg po bid, days 9-15, lungs day 16, untreated day 16 mean 9.1): 8.2 Log10 CFU
- reduction of lung CFU compared to untreated control mice (wild-type Mtb H37Rv; mouse, in vivo): 0.9 log10
- Caco-2 Rank Papp (Caco-2 cells): Low
- Efflux Transporter Substrate (Caco-2 cells): Poor or no
- AUC(0-t) (in vivo [2]; iv, 5 mg/kg): 37.1 µg·h/mL
- Vd (in vivo [2]; iv, 5 mg/kg): 0.11 L/kg
- clearance (in vivo [2]; iv, 5 mg/kg): 0.135 L/h/kg
- half-life (in vivo [2]; iv, 5 mg/kg): 34.8 min
- k el (in vivo [2]; iv, 5 mg/kg): 0.000333 s⁻¹
- AUC(0-t) (in vivo [2]; po, 25 mg/kg): 0.542 µg·h/mL
- bioavailability (in vivo [2]; po, 25 mg/kg): 0.3%
- AUC(0-t) (in vivo [3]): 60.2 ± 11.4 µg·h/mL
- Cmax (in vivo [3]): 28.7 ± 0.866 µg/mL
- Tmax (in vivo [3]): 60 to 120 min
- remaining at 6 h, 10 μM (physchem; 6h): 94.7%
- remaining at 24 h, 10 μM (physchem; 24h): 84.2%
- remaining at 2 h, 2 μM (in vitro [4]): 88.5%
- fraction unbound at 4 h, 2 μM (in vitro [5]): 0.817
- fraction unbound at 4 h, 2 μM (in vitro [6]): 0.378
- IC50 (CYP3A4): > 25 µM
